Results reported in article PMC6556873, “Rapid Covalent-Probe Discovery by Electrophile-Fragment Screening” (Journal of the American Chemical Society, 2019).
Like-named read-outs stand apart in the source and are kept apart here.

Assays:
NUDT7 = target: T1, NUDT7 (Homo sapiens, UniProt P0C024); parameters: Intact protein LC/MS covalent labelling, fragments in pools of five, 200 uM each, 4 °C; conditions: 24 h, 4 °C, pool of five; 200 µM; covalent
T1 construct: residues 14-235, E. coli, pNIC28-Bsa4, N-terminal His6 tag removed by TEV, construct 26672 Da
Protocol: (§1) Incubations were performed at 200 μM for each compound and 2 μM of protein (10 μM for BSA) for 24 h at 4 °C with moderate shaking. Incubation buffers varied among proteins (PBS pH 7.4 for QSOX1 and BSA; 10 mM HEPES pH 7.5, 0.3 M NaCl, 0.5 mM TCEP for PCAF, UPS8, and NUDT7; […]; 10 mM Na2HPO4 pH 7.5 100 mM NaCl 5 mM β-mercaptoethanol for NV3CP; 20 mM Na phosphate pH 7.5 for NNMT; […]. The reaction was stopped by quenching with formic acid, 0.4% final concentration. Each protein was incubated with the electrophilic library in pools of five compounds per well. The pool’s composition maximized the difference in mass between fragments in the same well. Incubations were performed with each fragment at 200 μM, for 24 h at 4 °C, to allow the screening of proteins that are not stable for long time periods at higher temperatures. Following incubation, we used intact protein [compound left out] chromatography/mass spectrometry (LC/MS) to identify the fragments and quantify their labeling (Figure 3A). […] There was good agreement between the percent of labeling of NUDT7 by 100 random individual compounds and that obtained in pools of five (R^2=0.78; Figure S6 and Data set 2 in the Supporting Information).

BSA = target: T2, BSA (Bos taurus, UniProt P02769); parameters: Intact protein LC/MS covalent labelling, fragments in pools of five, 200 uM each, 4 °C; conditions: 24 h, 4 °C, pool of five; 200 µM; covalent
T2 construct: gene ALB
Protocol: as §1

PCAF = target: T3, PCAF (Homo sapiens, UniProt Q92831); parameters: Intact protein LC/MS covalent labelling, fragments in pools of five, 200 uM each, 4 °C; conditions: 24 h, 4 °C, pool of five; 200 µM; covalent
T3 construct: gene KAT2B
Protocol: as §1

in vitro [1] = assay: in vitro; parameters: species or system HB2, CCD841; conditions: human, hek293 cells
in vitro [2] = assay: in vitro; parameters: species or system CCD841, HEK293; conditions: human, hb2 cells, read-out: HB-2 Cells Viability (%)
in vitro [3] = assay: in vitro; parameters: species or system HB2, HEK293; conditions: human, ccd841 cells

T1 sequence (P0C024 14-235): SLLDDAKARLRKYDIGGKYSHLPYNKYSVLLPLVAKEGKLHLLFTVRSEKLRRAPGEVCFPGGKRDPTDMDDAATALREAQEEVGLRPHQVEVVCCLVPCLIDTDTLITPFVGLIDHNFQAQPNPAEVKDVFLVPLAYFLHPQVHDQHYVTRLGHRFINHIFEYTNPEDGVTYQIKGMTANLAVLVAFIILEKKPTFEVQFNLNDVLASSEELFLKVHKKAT
T2 sequence (P02769 whole entry, the tested form may be a part): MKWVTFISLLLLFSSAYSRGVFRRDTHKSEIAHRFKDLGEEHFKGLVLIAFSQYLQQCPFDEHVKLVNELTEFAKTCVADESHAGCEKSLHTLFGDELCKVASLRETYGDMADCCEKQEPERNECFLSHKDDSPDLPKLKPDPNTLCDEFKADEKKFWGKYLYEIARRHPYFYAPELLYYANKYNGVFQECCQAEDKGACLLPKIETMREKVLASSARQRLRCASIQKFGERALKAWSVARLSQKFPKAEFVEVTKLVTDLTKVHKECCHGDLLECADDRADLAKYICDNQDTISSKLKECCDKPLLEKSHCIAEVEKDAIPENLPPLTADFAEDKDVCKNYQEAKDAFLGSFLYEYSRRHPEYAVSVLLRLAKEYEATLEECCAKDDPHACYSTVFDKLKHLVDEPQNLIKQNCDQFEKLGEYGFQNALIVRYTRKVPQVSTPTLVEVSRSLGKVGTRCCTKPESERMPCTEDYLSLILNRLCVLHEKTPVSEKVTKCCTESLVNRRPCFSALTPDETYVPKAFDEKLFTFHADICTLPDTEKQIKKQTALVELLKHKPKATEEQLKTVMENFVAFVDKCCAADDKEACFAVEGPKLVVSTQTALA
T3 sequence (Q92831 whole entry, the tested form may be a part): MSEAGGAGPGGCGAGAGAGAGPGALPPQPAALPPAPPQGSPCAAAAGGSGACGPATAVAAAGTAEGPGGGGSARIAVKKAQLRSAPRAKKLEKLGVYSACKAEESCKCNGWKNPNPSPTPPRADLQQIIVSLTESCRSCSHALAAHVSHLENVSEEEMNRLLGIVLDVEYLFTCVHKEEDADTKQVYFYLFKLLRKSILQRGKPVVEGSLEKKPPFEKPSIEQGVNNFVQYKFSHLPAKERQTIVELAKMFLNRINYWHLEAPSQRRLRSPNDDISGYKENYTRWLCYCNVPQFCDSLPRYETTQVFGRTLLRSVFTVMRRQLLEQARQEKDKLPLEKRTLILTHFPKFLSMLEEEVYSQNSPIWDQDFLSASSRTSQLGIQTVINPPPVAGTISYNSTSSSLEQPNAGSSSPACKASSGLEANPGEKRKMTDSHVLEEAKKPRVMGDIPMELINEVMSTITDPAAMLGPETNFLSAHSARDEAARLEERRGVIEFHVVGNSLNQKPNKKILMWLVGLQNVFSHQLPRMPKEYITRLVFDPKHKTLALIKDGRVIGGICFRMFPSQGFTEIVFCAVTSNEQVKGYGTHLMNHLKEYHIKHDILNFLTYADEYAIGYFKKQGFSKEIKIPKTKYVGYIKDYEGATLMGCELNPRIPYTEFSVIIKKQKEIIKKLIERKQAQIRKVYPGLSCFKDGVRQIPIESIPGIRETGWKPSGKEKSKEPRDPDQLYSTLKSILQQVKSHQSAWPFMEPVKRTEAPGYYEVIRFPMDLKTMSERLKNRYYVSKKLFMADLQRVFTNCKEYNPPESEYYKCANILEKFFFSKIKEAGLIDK

Row | NUDT7 (NUDT7) | BSA (BSA) | PCAF (PCAF) | SMILES | viability at 48 h, 10 µM (in vitro [1]) [%] | viability at 48 h, 10 µM (in vitro [2]) [%] | viability at 48 h, 10 µM (in vitro [3]) [%]
1 | 0 | 0 | 0 | CC(=O)c1sc2nc(C)cc(C)c2c1NC(=O)CCl [PCM-0102108] | 101 | 103 | 99
2 | 0.11 | 0 | 0 | COc1ccc(C(=O)NNC(=O)CCl)cc1 [PCM-0102115] | 79.4 | 91.7 | 81.5
3 | 0.07 | 0 | 0 | O=C(CCl)Nc1ccc2[nH]c(C(F)(F)F)nc2c1 [PCM-0102151] | 1.3 | 7.4 | 28
4 | 0.22 | 0 | 0 | Cc1cccc([N+](=O)[O-])c1NC(=O)CCl [PCM-0102176] | 77.5 | 85.3 | 71.7
5 |  | 0 | 0 | CN(Cc1c(F)cccc1Cl)C(=O)CCl [PCM-0102184] | 4.9 | 9.3 | 42.2
6 | 0.08 | 0 | 0 | O=C(CCl)Nc1ccc(N2CCCCCC2)cc1 [PCM-0102199] | 4 | 7 | 31.8
7 | 0.29 | 0 | 0 | Cc1cccc(N2CCN(C(=O)CCl)CC2)c1C [PCM-0102215] | 11.1 | 7.5 | 43.8
8 | 0.16 | 0 | 0 | N#Cc1cnn(-c2ccccc2)c1NC(=O)CCl [PCM-0102225] | 91 | 99 | 81
9 | 0.64 | 0 | 0.45 | O=C(CCl)Nc1c(Cl)cccc1Cl [PCM-0102234] | 101 | 96.3 | 77.5
10 | 0 | 0 | 0 | CC1CCN(c2ccc(NC(=O)CCl)cc2)CC1.Cl [PCM-0102235] | 18.9 | 21.9 | 48.3
11 | 0 | 0 | 0 | COc1ccc(NC(=O)NC(=O)CCl)cc1 [PCM-0102268] | 65 | 63.7 | 70.4
12 | 0.24 | 0 | 0 | Cc1cc(N2CCCC2)ccc1NC(=O)CCl [PCM-0102301] | 40.7 | 47.9 | 78.6
13 | 0 | 0 | 0 | O=C(CCl)NNc1ccccn1 [PCM-0102319] | 94.6 | 106 | 106
14 |  | 0 | 0 | O=C(CCl)Nc1ccc2c(c1)OCCO2 [PCM-0102324] | 8.2 | 35.2 | 63.3
15 | 0 | 0 | 0 | Cc1cc(NC(=O)CCl)n(C)n1 [PCM-0102383] | 31.2 | 64.5 | 54.4
16 | 0 | 0 | 0 | O=C(CCl)N1CCc2cc([N+](=O)[O-])ccc21 [PCM-0102403] | 50.4 | 21.2 | 51.4
17 | 0.18 | 0 | 0 | Cc1ccc(NC(=O)CCl)c(Cl)c1 [PCM-0102408] | 38.1 | 35.9 | 78.1
18 | 0 | 0 | 0 | CC1CCCCN1C(=O)CCl (stereo not drawn) [PCM-0102434] | 71.3 | 89.1 | 82.7

Row | NUDT7 (NUDT7) | BSA (BSA) | PCAF (PCAF) | SMILES | viability at 48 h, 10 µM (in vitro [1]) [%] | viability at 48 h, 10 µM (in vitro [2]) [%] | viability at 48 h, 10 µM (in vitro [3]) [%]
19 | 0 | 0 | 0 | C=CC(=O)NC1c2ccccc2CC12CCOCC2 (stereo not drawn) [PCM-0102445] | 111 | 103 | 106
20 | 0 | 0 | 0 | C=CC(=O)N1CCC(NC(=O)c2cc(C)on2)CC1 [PCM-0102557] | 83.7 | 101 | 101
21 | 0 | 0.24 | 0 | C=CC(=O)NCc1cnc(C)s1 [PCM-0102587] | 83.2 | 107 | 111
22 | 0.22 | 0 | 0 | O=C(CCl)N1CCc2[nH]c3ccccc3c2C1 [PCM-0102591] | 7.5 | 7.3 | 61.8
23 | 0 | 0 | 0 | C=CC(=O)NC1(c2nc(C)cs2)CCOCC1 [PCM-0102601] | 109 | 103 | 102
24 |  | 0 | 0 | O=C(CCl)N1CC=C(c2c[nH]c3ccccc23)CC1 [PCM-0102631] | 46.3 | 15.3 | 77.7
25 | 0 | 0 | 0 | C=CC(=O)N1CCCC(c2nc(C(F)(F)F)cn2C)C1 (stereo not drawn) [PCM-0102633] | 106 | 99.9 | 118
26 | 0 | 0 | 0 | C=CC(=O)NC1CCN(C(C)=O)Cc2cc(F)ccc21 (stereo not drawn) [PCM-0102635] | 91.8 | 101 | 114
27 | 0 | 0.18 | 0 | C=CC(=O)N1CCn2c(cc3cc(Cl)ccc32)C1 [PCM-0102661] | 87.1 | 81.5 | 109
28 | 0 | 0 | 0 | O=C(CCl)NCc1ccc(Cl)cc1 [PCM-0102668] | 83.7 | 108 | 112
29 | 0 | 0 | 0 | C=CC(=O)NC(C)(C)c1noc(C(C)(C)C)n1 [PCM-0102724] | 113 | 95.8 | 108
30 |  |  | 0 | N#Cc1ccsc1NC(=O)CCl [PCM-0102768] | 45.9 | 46.1 | 74.6
31 | 0.21 | 0 | 0 | Cc1cc(NC(=O)CCl)ccc1Br [PCM-0102770] | 1.6 | 2.5 | 15.6
32 | 0.1 | 0 | 0 | O=C(CCl)Nc1ccc2c(c1)OC1(CCCC1)O2 [PCM-0102801] | 2.8 | 8.5 | 59.7
33 | 0 | 0 | 0 | C=CC(=O)N1CCn2c(cc3c(Cl)cccc32)C1 [PCM-0102835] | 69.7 | 83.4 | 91.6
34 | 0 | 0.22 | 0 | CN(C)c1ccc(NC(=O)CCl)cc1.Cl [PCM-0102859] | 87 | 105 | 110
35 | 0 | 0 | 0 | O=C(CCl)NC1CCC(C(F)(F)F)CC1 (stereo not drawn) [PCM-0102864] | 82.7 | 99.2 | 109
36 |  | 0 | 0 | C=CC(=O)NC(C)c1ccc(C(F)(F)F)nc1Cl (stereo not drawn) [PCM-0103053] | 85.5 | 99.6 | 113
